Measured values reported in US20130059850A1, “AZA-INDOLE DERIVATIVES USEFUL AS MODULATORS OF FAAH” (MERCK SHARP & DOHME CORP., priority 2010, published 2013).
pIC50: −log10 of the molar value.

Tests used:
[1] = target: T1, human FAAH (Fatty Acid Amide Hydrolase) (Homo sapiens, UniProt O00519); experiment: FAAH whole cell assay on CHO cells expressing human FAAH (human WC), AAMCA fluorescent substrate; assay type: cell-based; details: human FAAH_CHO whole cell
T1 construct: The full length FAAH was subcloned into the mammalian expression vector, pcDEF.neo, using XbaI and EcoRI restriction sites; expressed in transfected cells
T1 sequence (O00519 1-579): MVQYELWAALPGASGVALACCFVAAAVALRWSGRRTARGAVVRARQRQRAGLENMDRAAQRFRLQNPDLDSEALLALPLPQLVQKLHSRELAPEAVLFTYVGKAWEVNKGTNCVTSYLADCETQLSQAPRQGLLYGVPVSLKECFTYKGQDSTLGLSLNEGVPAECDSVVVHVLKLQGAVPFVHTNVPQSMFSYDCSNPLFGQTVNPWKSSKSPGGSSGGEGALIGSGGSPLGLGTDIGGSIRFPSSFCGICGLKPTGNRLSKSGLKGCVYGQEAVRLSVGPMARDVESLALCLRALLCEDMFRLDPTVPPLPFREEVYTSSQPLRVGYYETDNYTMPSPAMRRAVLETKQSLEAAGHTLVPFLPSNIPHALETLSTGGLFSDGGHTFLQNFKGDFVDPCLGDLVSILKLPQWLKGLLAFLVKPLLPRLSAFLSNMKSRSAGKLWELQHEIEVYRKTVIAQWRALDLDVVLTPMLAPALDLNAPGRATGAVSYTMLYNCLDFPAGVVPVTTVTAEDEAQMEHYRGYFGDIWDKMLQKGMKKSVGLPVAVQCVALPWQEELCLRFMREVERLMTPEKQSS
Description: (§1) To assist in assay development stable cell lines for human, murine and rat full length FAAH were developed. Human FAAH cDNA (Accession No: NM_001441.1) was purchased from Origene (Rockville, Md.). The full length FAAH was subcloned into the mammalian expression vector, pcDEF.neo, using XbaI and EcoRI restriction sites and used for stable cell line generation.
Murine (accession number NM_010173) and Rat FAAH (accession number NM_024132) was amplified by reverse transcriptase polymerase chain reaction (RT-PCR) from brain cDNA (BD Biosciences, San Jose, Calif.) using primers 1 and 2 or primers 1 and 3 respectively (see Table). The resulting PCR product was ligated into pCR4 TOPO and DNA sequence confirmed. The full length murine FAAH was subcloned into the mammalian expression vector, pcDEFneo using either EcoRI (murine) or KpnI and EcoRI (rat) restriction sites. Chinese hamster ovary cells (CHO) were transfected following manufacturers protocol (AMAXA). Forty eight hours post transfection, cells were trypsinized and transferred to 96 well plates in Iscove's DMEM media supplemented with 2 mM Glutamine, 10% fetal calf serum, 1 mg/ml geneticin and HT Supplement (0.1 mM sodium hypoxanthine, 0.016 mM thymidine) in order to isolate single clones. Following selection in geneticin, individual clones were selected and FAAH activity was assessed using a whole cell fluorescent anandamide assay, modified from Ramarao et al (2005). Following removal of tissue culture media cells were dislodged following addition of Cellstripper (Mediatech, Inc. Manassas, Va.) and transferred to 96 well black clear bottom assay plate, centrifuged at 1,000 rpm for 3 mins and media removed and replaced with assay buffer (50 mM Tris pH8.0, 1 mM EDTA, 0.1% fatty acid free BSA). The reaction was initiated by addition of fluorescent substrate, AMC Arachidonoyl Amide (Cayman Chemical, Ann Arbor, Mich.) to 1 μM and reaction allowed to proceed for 2 hours at room temperature. Release of fluorescence was monitored in a CytoFluor Multiplate Reader. Cells expressing the highest amount of FAAH activity were selected for study with FAAH inhibitors.
(§2) (American Radiolabeled Chemicals; 1 mCi/ml) with FAAH (Life Sciences (1995), 56, 1999-2005 and Journal of Pharmacology and Experimented Therapeutics (1997), 283, 729-734), Analytical. Biochemistry (2003), 318, 270-5. In addition, routine assays were performed monitoring hydrolysis of arachidonyl-7-amino-4-methylcoumarin amide (AAMCA) by following increase in fluorescence upon release of 7-amino 4-methyl coumarin (λEX=355 nm, μEM=460 nm). Analytical. Biochemistry (2005). 343, 143-51
Assays are performed on either cell lysate or microsome fractions prepared as described or in whole cell format employing either the fluorescent substrate AAMCA (Cayman chemical, Ann Arbor, Mich.,) or ^3H-anandamide ([ETHANOLAMINE-1-3H] American Radiolabeled Chemicals; 1 mCi/ml). The cell lysate or microsome assay is performed in black PerkinElmer OptiPlates-384F by adding FAAH_CHO (whole cell (human whole cell or human WC), cell lysate (human cell lysate or human LY) or microsome) in assay buffer (50 mM Phosphate, pH 8.0, 1 mM EDTA, 200 mM KCl, 0.2% glycerol, 0.1% fatty acid free BSA) to each well, followed by either DMSO or compound and allowed to incubate at 22-25° C. for fifteen minutes. AAMCA substrate was used to achieve a final concentration of 1 μM and reaction allowed to proceed at room temperature for 1-3 hours. Fluorescent release as a measure of FAAH activity was monitored by reading the plate in a Envision plate Reader (Ex: 360/40 nM; Em: 460/40 nM). Whole cell assay is conducted with cells harvested after rinsing tissue culture flasks three times with Ca^++Mg^++ free PBS, incubating for […] in Enzyme free dissociation media and centrifuging for 5 minutes at 1,000 rpm in table top centrifuge. […]

[2] = target: T1, human FAAH (Fatty Acid Amide Hydrolase); experiment: FAAH enzyme assay on CHO cell lysate expressing human FAAH (human LY), AAMCA fluorescent substrate; assay type: biochemical; details: human FAAH_CHO cell lysate
Description: as §1
CHO cells expressing FAAH were used to prepare either crude cell lysate or microsome fractions. To harvest cells, tissue culture media was decanted, the monolayer washed three times with Ca^++Mg^++ free PBS and cells recovered after […] in enzyme free dissociation media (Millipore Corp, Billerica, Mass.). Cells were collected by centrifuging at 2000 rpm for 15 min. and the cell pellet re-suspended with 50 mM HEPES (pH 7.4) containing 1 mM EDTA and the protease inhibitors aprotinin (1 mg/ml) and leupeptin (100 μM). The suspension was sonicated at 4° C. and the cell lysate recovered after centrifuging at 12,000×g (14,600 rpm, SS34 rotor) for 20 min at 4° C. to form a crude pellet of cell debris, nuclei, peroxisomes, lysosomes, and mitochondria; the supernatant or cell lysate was used for FAAH enzyme assay. In some cases, microsomes fractions enriched in FAAH were prepared by centrifuging the cell lysate further at 27,000 rpm (100,000×g) in SW28 rotor for 50 minutes at 4° C. The pellet containing FAAH-enriched microsomes was re-suspend in 50 mM HEPES, (pH 7.4) 1 mM EDTA, and any remaining DNA sheared by passage of material through a 23 gauge needle and aliquots of enzyme were store at −80° C. prior to use.
as §2
Assays are performed on either cell lysate or microsome fractions prepared as described or in whole cell format employing either the fluorescent substrate AAMCA (Cayman chemical, Ann Arbor, Mich.,) or ^3H-anandamide ([ETHANOLAMINE-1-3H] American Radiolabeled Chemicals; 1 mCi/ml). The cell lysate or microsome assay is performed in black PerkinElmer OptiPlates-384F by adding FAAH_CHO (whole cell (human whole cell or human WC), cell lysate (human cell lysate or human LY) or microsome) in assay buffer (50 mM Phosphate, pH 8.0, 1 mM EDTA, 200 mM KCl, 0.2% glycerol, 0.1% fatty acid free BSA) to each well, followed by either DMSO or compound and allowed to incubate at 22-25° C. for fifteen minutes. AAMCA substrate was used to achieve a final concentration of 1 μM and reaction allowed to proceed at room temperature for 1-3 hours. Fluorescent release as a measure of FAAH activity was monitored by reading the plate in a Envision plate Reader (Ex: 360/40 nM; Em: 460/40 nM). Whole cell assay is conducted with cells harvested after rinsing tissue culture flasks three times with Ca^++Mg^++ free PBS, incubating for […] in Enzyme free dissociation media and centrifuging for 5 minutes at 1,000 rpm in table top centrifuge. Cells are resuspended in assay buffer at desired cell number in (4×10^4 cells/assay in 96-well format; 1×10^4 cells/assay in 384-well format) and assayed as described.

Row | pIC50 [1] | pIC50 [2] | SMILES
1 | 8.09 | 8.51 | OCC1CC=C(c2[nH]c3ncccc3c2Sc2ccc(Cl)cc2)CC1 (centres unmarked) [Example B50, (4-{3-[(4-chlorophenyl)sulfanyl]-1H-pyrrolo[2,3-b]pyridin-2-yl}cyclohex-3-en-1-yl)methanol]
2 | 5.95 | 6.67 | CC(C)(O)/C=C/c1[nH]c2ncccc2c1Sc1ccc(Cl)cc1 [Example B34]
3 | 5.38 | 6.62 | Cn1cc(-c2[nH]c3ncccc3c2Sc2ccc(Cl)cc2)cn1 [Example B20]
4 | 7.74 | 8.01 | O=C(Nc1ccc2[nH]ncc2c1)c1[nH]c2ncccc2c1Sc1ccc(Cl)cc1 [Example C16]
5 | 7.74 | 8.55 | COC(=O)c1ccc(-c2[nH]c3ncccc3c2Sc2ccc(Cl)cc2)cc1 [Example A26]
6 | 7.63 | 8.01 | Cn1cccc2c(Sc3ccc(Cl)cc3)c(-c3ccc4c(c3)OCCO4)nc1-2 [Example E2, 3-[(4-chlorophenyl)sulfanyl]-2-(2,3-dihydro-1,4-benzodioxin-6-yl)-7-methyl-7H-pyrrolo[2,3-b]pyridine]
7 | 7.32 | 8.02 | COc1ncc(-c2[nH]c3ncccc3c2Sc2ccc(Cl)cc2)c(OC)n1 [Example B14]
8 | 7.48 | 7.87 | O[C@H]1CC[C@H](c2[nH]c3ncccc3c2Sc2ccc(Cl)cn2)CC1 [Example D6, trans-4-{3-[(5-chloropyridin-2-yl)sulfanyl]-1H-pyrrolo[2,3-b]pyridin-2-yl}cyclohexanol]
9 | 7.57 | 7.94 | CC(O)c1ccc(-c2[nH]c3ncccc3c2Sc2ccc(Cl)cc2)cc1 (centres unmarked) [Example B12]
10 | 7.13 | 7.84 | OC[C@H]1CC[C@@H](c2[nH]c3ncccc3c2Sc2ccc(Cl)cc2)CC1 [Example B51]
11 | 7.78 | 8.19 | Cn1c(-c2ccc3c(c2)OCCO3)c(Sc2ccc(Cl)cc2)c2cccnc21 [Example E3, 3-[(4-chlorophenyl)sulfanyl]-2-(2,3-dihydro-1,4-benzodioxin-6-yl)-1-methyl-1H-pyrrolo[2,3-b]pyridine]
12 | 7.79 | 8.19 | COc1cc(-c2[nH]c3ncccc3c2Sc2ccc(Cl)cc2)cnc1OC [Example B41]
13 | 7.38 | 7.88 | CC(C)(O)c1ccc(-c2[nH]c3ncccc3c2Sc2ccc(Cl)cc2)cc1 [Example A31]
14 | 6.80 | 7.31 | CCn1cccc2c(Sc3ccc(Cl)cc3)c(-c3ccc4c(c3)OCO4)nc1-2 [Example E13]
15 | 5.94 | 6.58 | Clc1ccc(Sc2c(CNC3CCOCC3)[nH]c3ncccc23)cc1 [Example J7]
16 | 7.08 | 7.81 | Cn1cccc2c(Sc3ccc(Cl)cn3)c(-c3ccc4[nH]ncc4c3)nc1-2 [Example E9]
17 | 5.07 | 6.33 | Clc1ccc(Sc2c(-c3cccs3)[nH]c3ncccc23)cc1 [Example B33]
18 | 7.14 | 7.57 | Cn1cccc2c(Sc3ccc(Cl)cn3)c(-c3ccc4c(c3)OCO4)nc1-2 [Example E11]
19 | 7.16 | 7.80 | Clc1ccc(Sc2c(C3=CCCCC3)[nH]c3ncccc23)cc1 [Example B40]
20 | 5.70 | 6.18 | O=C(NCC(O)C1CCCCC1)c1[nH]c2ncccc2c1Sc1ccc(Cl)cc1 (centres unmarked) [Example C10]
21 | 7.54 | 8.48 | C[S+]([O-])c1ccc(-c2[nH]c3ncccc3c2Sc2ccc(Cl)cc2)cn1 (centres unmarked) [Example A36, 3-[(4-chlorophenyl)sulfanyl]-2-[6-(methylsulfinyl)pyridin-3-yl]-1H-pyrrolo[2,3-b]pyridine]
22 | 6.24 | 6.60 | O=C(O)C1CC=C(c2[nH]c3ncccc3c2Sc2ccc(Cl)cc2)CC1 (centres unmarked) [Example B47]
23 | 5.76 | 6.71 | COCc1ccccc1-c1[nH]c2ncccc2c1Sc1ccc(Cl)cc1 [Example A19]
24 | 7.77 | 7.91 | O=C1NCc2cc(-c3[nH]c4ncccc4c3Sc3ccc(Cl)cn3)ccc21 [Example A34]
25 | 6.43 | 6.96 | CC(=O)Nc1ccc(-c2[nH]c3ncccc3c2Sc2ccc(Cl)cc2)cc1 [Example A20]
26 | 6.81 | 7.93 | CC(C)Oc1ccc(-c2[nH]c3ncccc3c2Sc2ccc(Cl)cc2)cc1 [Example A17]
27 | 7.55 | 8.13 | O=C(Nc1ccc2c(c1)OCCO2)c1[nH]c2ncccc2c1Sc1ccc(Cl)cc1 [Example C14]
28 | 5.48 | 5.59 | OC(c1ccc2c(c1)OCO2)c1[nH]c2ncccc2c1Sc1ccc(Cl)cc1 (centres unmarked) [Example J9]
